The values below come from patent publication US7691862B2, “Method and composition for treating periodontal disease” (Regena Therapeutics LC, priority 2003, dated 2010).

One series deals with albumin (Homo sapiens, UniProt P02768). The note with it: cited from earlier work.
For series [1] the following is noted: in vivo; cited from earlier work.
The conditions of series [2]: cited from earlier work.
The test system of series [3] is periodontal pockets of patients with moderate-to-advanced periodontitis. The series can be described thus: Randomized double-blind placebo-controlled study: change in periodontal pocket probing depth after scaling, root planing and curettage. The format is in vivo, human. The method, then: 1.1 Overall Study Design and Plan This was a randomized, double-blind, single-center, multiple-dose, parallel-group, placebo-controlled study. At baseline, patients presenting at Periodontal Specialists of Ames for the treatment of periodontitis were screened for the study. Patients were assessed using medical histories, dental histories, blood pressure, pulse, pregnancy tests (if female), periapical radiographs and periodontal examinations. Patients who met all of the inclusion and exclusion criteria, appeared in good health other than periodontitis, and who had documented moderate-to-advanced periodontitis with at least four destructive periodontal-diseased pockets (ranging from 5 to 12 mm in depth) were eligible for study participation. Each patient underwent a gross debridement, following which, he/she was randomized to one of four treatment groups:
Patients randomized to receive doxycycline (Groups B and C) were administered a loading dose of doxycycline 100 mg BID for one day and then instructed to take doxycycline 100 mg QD for nine consecutive days; patients in Groups A and D received matching doxycycline placebo for ten days.
On the last day of doxycycline/placebo administration, patients reported to the clinical research facility and underwent (under local anesthesia) dental sub-gingival scaling, root planing, and curettage on one side of the mouth. Following completion of these procedures, patients randomized to misoprostol (Groups C and D) received an application of a misoprostol paste (10 ug/site) and those randomized to placebo (Groups A and B) received placebo paste. Patients were instructed to apply the paste to each quadrant four times daily for the next week. One week later, patients returned to the clinical research facility and underwent sub-gingival scaling, root planing, and curettage on the other side of the mouth. The misoprostol/placebo paste was administered as described above. Patients were instructed to apply the paste to the affected teeth four times daily for an additional six weeks. They were also instructed to the proper use of the rubber tip for six weeks.
At two weeks post-treatment, patients were contacted for adverse event monitoring and compliance with study drug administration. Six weeks following the second sub-gingival scaling, planing, and curettage procedure, patients returned to the clinical research facility for periodontal and adverse event assessments. Dental prophylaxis, including periodontal maintenance was repeated at the three month intervals, with final assessments performed at 52 weeks post-treatment.
The initial dose of the misoprostol/placebo paste was applied by the periodontist, and all subsequent doses were applied by the patient. Each affected tooth was wiped with a 2×2 sponge to dry the tissue. Then 0.2 ml of the paste was dispensed from the 10.0 ml syringe onto the tip of the finger and applied to each affected tooth. The patient then sipped a little water and gently flushed the paste to gel it. Patients were instructed not to eat anything for at least one hour.
1.5.1.2.1. Periodontal Pocket Probing Depth Periodontal probing depths were measured at baseline, at six weeks post-treatment, and at 3, 6, 9 and 12 months post-treatment. More recently, a larger study at three weeks post treatment was performed as described in Example
To measure the periodontal pocket probing depth, a manual University of Michigan off-set probe marked in millimeters was inserted into the pocket with the long axis parallel to the long axis of the tooth. Insertion was continued to the base of the pocket with gentle pressure until a distinct resistance was felt.
The measurement from the tip of the probe to the gingival margin (GM-BP, gingival margin to the base of the pocket) was recorded in millimeters. On measurements of proximal sites the gingival margin may cross the probe at an angle, and the highest point on the side of the probe was read. […]

The test system of series [4] is mammalian calvarial cells. As to conditions: in vitro culture; cited from earlier work.
For series [5], the system named is canine mandible alveolar bone. The note with it: cited from earlier work.
Where [6] appears, read: 6 Weeks post-treatment, baseline pocket depth 5 mm.
[7] abbreviates: 6 Weeks post-treatment, baseline pocket depth 6 mm.
Setting [8] is: 6 Weeks post-treatment, baseline pocket depth 7 mm.
Setting [9] is: 6 Weeks post-treatment, baseline pocket depth 8 mm.
The mark [10] stands for this setting: 6 Weeks post-treatment, baseline pocket depth 9 mm.
Where [11] appears, read: 6 Weeks post-treatment, baseline pocket depth 10 mm.
Setting [12] is: 6 Weeks post-treatment, baseline pocket depth ≦4 mm.
Where [13] appears, read: 52 Weeks post-treatment, baseline pocket depth 5 mm.
[14] abbreviates: 52 Weeks post-treatment, baseline pocket depth 6 mm.
The mark [15] stands for this setting: 52 Weeks post-treatment, baseline pocket depth 7 mm.
The mark [16] stands for this setting: 52 Weeks post-treatment, baseline pocket depth 8 mm.
[17] abbreviates: 52 Weeks post-treatment, baseline pocket depth 9 mm.
The mark [18] stands for this setting: 52 Weeks post-treatment, baseline pocket depth 10 mm.
Where [19] appears, read: 52 Weeks post-treatment, baseline pocket depth ≦4 mm.

Like-named read-outs stand apart in the source and are kept apart here. Marks after values point to notes of the source that are not given here.

Sequence of albumin (P02768 25-609, species assumed): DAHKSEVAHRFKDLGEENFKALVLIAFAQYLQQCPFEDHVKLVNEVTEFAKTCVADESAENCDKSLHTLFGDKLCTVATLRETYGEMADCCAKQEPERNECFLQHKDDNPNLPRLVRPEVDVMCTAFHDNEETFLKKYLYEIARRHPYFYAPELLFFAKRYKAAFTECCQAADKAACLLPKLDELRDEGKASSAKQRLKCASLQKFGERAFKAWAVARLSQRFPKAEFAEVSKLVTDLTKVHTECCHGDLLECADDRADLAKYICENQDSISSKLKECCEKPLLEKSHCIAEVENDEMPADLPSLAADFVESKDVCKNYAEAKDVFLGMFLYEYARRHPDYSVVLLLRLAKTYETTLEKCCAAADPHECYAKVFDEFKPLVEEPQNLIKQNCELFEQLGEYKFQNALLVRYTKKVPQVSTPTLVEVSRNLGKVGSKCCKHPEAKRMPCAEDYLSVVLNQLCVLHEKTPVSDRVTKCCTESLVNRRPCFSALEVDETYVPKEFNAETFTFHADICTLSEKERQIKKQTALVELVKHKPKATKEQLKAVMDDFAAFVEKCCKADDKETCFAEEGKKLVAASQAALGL

Consider `CCCCC(C)(O)C/C=C/[C@H]1[C@H](O)CC(=O)[C@@H]1CCCCCCC(=O)O` (mixture of isomers) [Misoprostolic acid], for which the albumin bound entry on albumin is listed as “approximately 85%”. For the same compound, in series [1], the half-life result was “about 30 minutes”.
Take `CCCC[C@@](C)(O)C/C=C/[C@H]1[C@H](O)CC(=O)[C@@H]1CCCCCCC(=O)OC` (racemic) [Misoprostol, methyl-(11α, 13E)-11,16-dihydroxy-16-methyl-9-oxoprost-13-en-1-oate]: the storage stability result in series [2] (dissolved in absolute alcohol (ethanol) and frozen) was “stable for at least a year”; in series [2] (dry state, stabilized with hydroxypropyl methyl cellulose), “a couple years”. The stability of creams entry in series [2] (in the presence of water, breaks down to prostaglandin A) was “creams last approximately only one week”. Also, the “Mean Changes in Pocket Depths Using Patient as Inference” value (“Mean Changes … as Inference” below) in series [3] (setting [6]) is 1.57 mm; in series [3] (setting [7]), 2.13 mm; in series [3] (setting [8]) it was 2.68 mm; in series [3] (setting [9]) it was 2.84 mm; in series [3] (setting [10]), 4.46* mm; in series [3] (setting [11]), 4.70 mm. Also, the “Mean Changes … as Inference” value in series [3] (setting [12]) was 0.58 mm; in series [3] (setting [13]) it was 1.76*† mm; in series [3] (setting [14]) it was 2.49† mm; in series [3] (setting [15]), 3.28*† mm; in series [3] (setting [16]), 3.90*† mm; in series [3] (setting [17]) it was 5.06*† mm. The “Mean Changes … as Inference” value is 4.75 mm in series [3] (setting [18]) and 0.75*† mm in series [3] (setting [19]). Further, the “improvements in pocket depths compared to scaling, root planning and curettage alone” value in series [3] (52 weeks post-treatment) is on record as “statistically significant improvements”. The “mean changes in pocket depths compared to doxycycline+placebo” value in series [3] (52 weeks post-treatment, Wilcoxon rank-sum) was “statistically significantly greater improvements”. Besides, the tooth mobility result in series [3] (along with the decreases in pocket depth) was “decreases in tooth mobility”. Moreover, in series [3] (in vivo), the “patients requiring surgical intervention to stop the progression of the disease” value is “none of the patients”. The “reduction in pocket depth” value in series [3] (original pocket depth 10 mm or greater, after 6 weeks) is 40-50%.
Take `C[C@H]1c2cccc(O)c2C(=O)C2=C(O)[C@]3(O)C(=O)C(C(N)=O)=C(O)[C@@H](N(C)C)[C@@H]3[C@@H](O)[C@@H]21` [Doxycycline]: the “Mean Changes … as Inference” value in series [3] (setting [6]) is on record as 1.96* mm; in series [3] (setting [7]) it was 2.63* mm; in series [3] (setting [8]), 3.04* mm; in series [3] (setting [9]), 3.57* mm; in series [3] (setting [10]), 4.23* mm; in series [3] (setting [11]), 4.13 mm. Moreover, the “Mean Changes … as Inference” value in series [3] (setting [12]) was found to be 0.84 mm; in series [3] (setting [13]) it was 0.42 mm; in series [3] (setting [14]), 0.79 mm; in series [3] (setting [15]), 1.42 mm; in series [3] (setting [16]), 1.71 mm; in series [3] (setting [17]), 2.86 mm. In addition, the “Mean Changes … as Inference” value in series [3] (setting [18]) is given as 3.28 mm; in series [3] (setting [19]) it was −0.22* mm. Moreover, the “improvement in pocket depth (from the Figures)” value in series [3] (pocket depth originally 10 mm, Week 52) amounted to 3 mm. Further, the “reduction in depth (from the Figures)” value in series [3] (pocket depth originally 10 mm, at 6 weeks) is listed as approximately 5 mm.
For `CCCCC[C@H](O)/C=C/[C@H]1[C@H](O)CC(=O)[C@@H]1CCCCCCC(=O)O` [PGE1, prostaglandin E1], in series [4], the “formation of mineralized nodules” value is given as “increases the formation of mineralized nodules”. In series [5] (local application, adult dogs (Marks 1988)), the “new bone formation; thickness and appositional rate of alveolar bone” value was “increases the thickness and appositional rate of alveolar bone”. The “alveolar bone height, cementum and periodontal ligaments” value in series [5] (local delivery, premolars and molars of adult dogs (Marks 1994)) is “increases alveolar bone height and regenerates cementum and periodontal ligaments”.
